According to patent US20070248950A1, “Supported polydiacetylene 3-D arrays for flourescent or phosphorescent detection” (Analytical Biological Services, Inc., priority 2006, published 2007):

Biological target: Bee venom phospholipase A2 (PLA2) (Apis mellifera, UniProt P00630)
Type: biochemical

Bee venom phospholipase A2 (PLA2), sequence (P00630 34-167 limits assumed): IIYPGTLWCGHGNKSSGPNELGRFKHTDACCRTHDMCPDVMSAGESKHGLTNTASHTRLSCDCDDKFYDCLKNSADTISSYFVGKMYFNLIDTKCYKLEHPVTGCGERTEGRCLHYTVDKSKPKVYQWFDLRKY

CC(=O)O[C@H]1C[C@@H]2[C@@]3(C)CCCC(C)(C)[C@@H]3CC[C@@]2(C)[C@@H]2CC=C(C=O)[C@H](C=O)[C@@]12C [schalaradiol, 12-epi-scalaradial]
inhibition of PLA2 activity (rise in emission at 640 nm of supported liposomes): partial inhibition
